Reference: patent US12492195B2, “Preparation method for and crystal form of 3-aryloxy-3-five-membered heteroaryl-propylamine compound” (Zhangzhou Pien Tze Huang Pharmaceutical Co., Ltd., priority 2020, dated 2025)

Legend:
human TRPA1 channel = molecular target: T1, human TRPA1 channel (Homo sapiens, UniProt O75762); experiment: manual patch clamp detection of TRPA1 inhibitory activity; assay type: cell-based
T1 construct: expressed in transfected cells
Method: The stably transfected HEK293 cell line stably expressing human TRPA1 channel was placed in T75 culture flask with DMEM medium containing 15 μg/mL Blasticidin S HCl, 200 μg/mL Hygromycin B and 10% FBS, and cultured in an incubator in 5% CO2 at 37° C. When the cell density reached about 80%, the culture medium was removed, the residue was rinsed once with phosphate buffered saline (PBS) without calcium and magnesium. 2 mL of Trypsin was added to digest for 2 minutes, and 8 mL of culture medium was added to terminate the digestion. The cells were collected to 15 mL centrifuge tube and centrifuged at 800 rpm for 3 min. After the supernatant was removed, the cells were added to appropriate volume of extracellular fluid for re-suspending.
In manual patch clamp detection, HEKA system (Patch Master software) was used together with EPC-10 amplifier to record the whole cell current of TRPA1 stably transfected cell line at room temperature. […]
The record of data and the export of current amplitude measurement were carried out by Patch Master software. […] The original current data were corrected by software for leakage reduction, and the hTRPA1 current amplitude was measured at ±100 mV. The compound dose-effect curve and IC50 were fitted and calculated by GraphPad Prism 5.02 (GraphPad Sofhvare, San Diego, CA).

C57 mice = experiment: hot plate pain model in mice; assay type: in vivo; conditions: 10 mg/kg intraperitoneal, hot plate 55° C.
Method: SPF-grade C57 male mice were placed at hot plate with constant 55±0.1° C. […] If the pain reaction of mice was observed, the mice were taken out immediately to prevent mice from scalding. […] Appropriate amount of test compounds were added into required volume of physiological saline and fully suspended, and the concentration of the drug compound was prepared as 1 mg/ml. The standard volume of administration to mice was 10 ml/kg (or 0.1 ml/10 g). The administration mode was intraperitoneal administration. […] The administration volume was 10 ml/kg. […] Hot plate observation indicator is the time latency of mice on the hot plate at 55±0.1° C. Measurement and recording were conducted at 3 h before administration and 15 min, 30 min, and 60 min after administration. Maximum possible effect (MPE) % was used to evaluate analgesic effect of each compound, i.e., MPE %=[(Post drug latency-baseline latency)/(30-baseline latency)]×100. MPE % at different time points was recorded. The higher the value of MPE % was, the stronger the analgesic effect of the compound was.

mice = experiment: ICS model in mice (fibromyalgia), mechanical hyperalgesia test; assay type: in vivo; conditions: 10 mg/kg oral
Method: Male C57BUJ6 mice weighing 18-22 g at the beginning of experiment were selected. Each cage had 4 mice which were allowed to feed and drink water freely. Each experimental group had 12 mice, and the experimental mice were labeled by tail labeling method.
Day 0: At 4:30 pm, the mice were put in a plexiglass box with stainless steel mesh, and then the plexiglass box was put into a cold storage (4±2° C.) overnight. The mice were allowed to feed freely and agar was used to replace water.
Day 1: At 10:00 am, the mice were delivered to room temperature (24±2° C.) environment for 30 min, and then the mice were delivered to the cold storage for 30 min. The above steps were repeated until 4:30 pm, and the mice were put into the cold storage overnight.
The compounds were administered orally according to the schedule of experiment, and the dosage was 10 mg/kg.
On the fourth day after modeling, the pre-administration mechanical hyperalgesia test was performed on the animals. Animals with PWT value greater than 0.5 g were excluded and were not used for experiments. On the fifth day after modeling, the animals were tested for mechanical hyperalgesia test at 0.5 h, 1 h, and 2 h after the administration of compounds.
The mice were individually placed in a plexiglass box with a grid on the bottom of the box to ensure that the mice paw could be tested. The mice were allowed to adapt for 15 min before the test. After the adaptation was completed, the test fiber was used to test at the center of the left hind paw of mice. The test fiber comprised 8 test strengths: 2.36(0.02 g), 2.44(0.04 g), 2.83(0.07 g), 3.22(0.16 g), 3.61(0.4 g), 3.84(0.6 g), 4.08(1 g), and 4.17(1.4 g). During the test, the test fiber was pressed vertically against the skin and forced to bend for 6-8 s with a 5 s interval between each test. During the test, rapid withdrawal of animal paw was recorded as pain response. When the test fiber was removed from animal skin, the withdrawal of animal paw was also recorded as pain response. If animal moved or walked, the pain response was not recorded, and the test was repeated. In the test. 3.22(0.16 g) was used firstly. […] The maximum strength of tested fiber was 4.17(1.4 g).
Mechanical hyperalgesia was calculated by using the following formula: 50% response threshold (g)=(10^(Xf+k))/10,000; • Xf=the final test fiber value used in the test; • k=table value (Chaplan et al., 1994, page 62); • =mean difference 5. Data Collection and Analysis

ICR mice = experiment: acetic acid writhing pain model in mice; assay type: in vivo; conditions: for frequency of writhing response within 30 min: acetic acid 1 h after administration
Method: Male ICR mice, weighed 22-25 g, were fasted but allowed to drink water freely for 2 h before administration. All ICR mice were weighed and grouped randomly, and the number of animals in each group was greater than 10. […] […] The drug was administrated intragastrically based on the weight of mice. 1.5% acetic acid solution (0.1 ml/10 g) was injected intraperitoneally 1 hour after administration, and the frequency of visceral pain in each group of mice within 30 min was observed. When concave abdomen, stretched trunk and hind paw, and high buttocks appeared, one number point was recorded. Finally, the number of appearance of the above phenomenon was counted within 30 minutes.

T1 sequence (O75762 whole entry): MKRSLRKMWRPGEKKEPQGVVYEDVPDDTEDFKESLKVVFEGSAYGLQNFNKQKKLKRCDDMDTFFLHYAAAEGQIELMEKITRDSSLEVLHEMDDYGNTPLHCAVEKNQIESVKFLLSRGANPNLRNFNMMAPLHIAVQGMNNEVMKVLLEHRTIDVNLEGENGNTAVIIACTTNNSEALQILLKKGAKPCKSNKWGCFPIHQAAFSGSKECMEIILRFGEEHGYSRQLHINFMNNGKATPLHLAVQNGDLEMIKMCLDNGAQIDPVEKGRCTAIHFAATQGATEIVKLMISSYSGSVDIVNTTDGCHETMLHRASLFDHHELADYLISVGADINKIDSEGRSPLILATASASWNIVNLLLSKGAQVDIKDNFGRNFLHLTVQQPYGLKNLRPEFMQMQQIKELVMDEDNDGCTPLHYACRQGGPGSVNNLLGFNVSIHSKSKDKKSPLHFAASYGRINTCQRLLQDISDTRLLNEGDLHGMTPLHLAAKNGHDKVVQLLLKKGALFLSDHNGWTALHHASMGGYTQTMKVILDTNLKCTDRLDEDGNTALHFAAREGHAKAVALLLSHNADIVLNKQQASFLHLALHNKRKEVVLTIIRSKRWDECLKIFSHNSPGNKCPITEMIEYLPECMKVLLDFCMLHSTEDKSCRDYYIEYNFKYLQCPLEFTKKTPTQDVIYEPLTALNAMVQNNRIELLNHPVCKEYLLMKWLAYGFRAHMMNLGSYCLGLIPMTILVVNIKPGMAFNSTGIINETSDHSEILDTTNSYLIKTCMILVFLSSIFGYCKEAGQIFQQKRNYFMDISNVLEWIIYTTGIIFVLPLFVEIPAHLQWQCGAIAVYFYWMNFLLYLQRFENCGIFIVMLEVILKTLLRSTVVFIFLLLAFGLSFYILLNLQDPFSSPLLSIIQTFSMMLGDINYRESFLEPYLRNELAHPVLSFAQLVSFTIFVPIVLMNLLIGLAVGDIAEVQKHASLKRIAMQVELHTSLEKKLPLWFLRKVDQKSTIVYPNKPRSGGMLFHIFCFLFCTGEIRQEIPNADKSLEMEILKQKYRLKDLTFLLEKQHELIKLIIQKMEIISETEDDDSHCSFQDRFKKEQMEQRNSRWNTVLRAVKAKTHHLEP

| ratio of IC50 of the S configuration of duloxetine to the IC50 of the compound (human TRPA1 channel) | SMILES | analgesic activity compared with the positive controls gabapentin and duloxetine (C57 mice) | PWT(g) Mean ± SD (mice; 0.5 h after administration) [g] | PWT(g) Mean ± SD (mice; 1 h after administration) [g] | PWT(g) Mean ± SD (mice; 2 h after administration) [g] | frequency of writhing response within 30 min (ICR mice; 5 mg/kg intragastric) [times] | frequency of writhing response within 30 min (ICR mice; 10 mg/kg intragastric) [times] | half effective dose (EDso) (ICR mice; acetic acid writhing, intragastric) | frequency of writhing response within 30 min (ICR mice; 20 mg/kg intragastric) [times] |
| --- | --- | --- | --- | --- | --- | --- | --- | --- | --- |
| 10.14 | CNCC[C@H](Oc1cccc2ccoc12)c1cccs1 [IC-1, (S)-3-(Benzofuran-7-yloxy)-N-methyl-3-(thiophen-2-yl)propan-1-amine] | stronger than those of gabapentin and duloxetine | 0.482 ± 0.199 | 0.773 ± 0.261 | 0.607 ± 0.160 | 20 | 17 | less than 5 mg/kg | – |
| 3.9 | CNCC[C@H](Oc1cccc2c1CCC2)c1cccs1 [IC-10] | stronger than those of gabapentin and duloxetine | – | – | – | – | – | – | – |
| – | CNCC[C@H](Oc1cccc2ccccc12)c1cccs1 [Duloxetine (S configuration), Duloxetine, reference compound] | – | 0.416 ± 0.140 | 0.648 ± 0.155 | 0.530 ± 0.235 | – | 27 | – | 21 |
